The source of these data is patent US11154482B2, “Peptide, composition and method for anti-hair graying” (Renorigin Innovation Institute Co., Ltd., priority 2020, dated 2021).

The nature of assay [1]: DPPH assay. The format is physicochemical. The settings on record: 50 μg/ml peptide, 0.2 mM DPPH, 16 h in the dark at room temperature, absorbance 515 nm. As for the experimental part: 50 μg/ml peptide of SEQ ID NO: 1 was treated with 0.2 mM DPPH for 16 h. Data are represented as the means±SD from three independent experiments. ***p<0.001.
50 μg/ml peptide of SEQ ID NO: 1 was added in 96-well plates and incubated with 0.2 mM DPPH. Plates incubated in the dark for 16 hours at room temperature. After 16 h, the absorbance was measured at 515 nm using an automated plat reader (molecular devices).

The test system of assay [2] is B16F10 murine melanoma cells. The experiment in a line: Prevention of hydrogen peroxide-induced oxidative stress injury (MTT cell viability assay). The format is cell-based. The settings on record: 50 μg/ml peptide for 24 h, then 0.5 mM hydrogen peroxide for 2 h. As for the experimental part: (§1) B16F10 murine melanoma cells (American Type Culture Collection, Manassas, Va., USA) were cultured in Dulbecco's modified Eagle's medium (DMEM) (Thermo Scientific, Barrington, Ill., USA) with 10% fetal bovine serum (FBS) (Gibco, Grand Island, N.Y., USA) and penicillin/streptomycin (100 IU/[…]) in a humidified atmosphere containing 5% CO2 at 37° C.
(§2) Cells (1×10^3) were seeded in 96-well plates. After treatment with hydrogen peroxide and peptide of SEQ ID NO: 1, MTT was added to a final concentration of 0.5 mg/ml and incubated for 4 h at 37° C. to allow MTT reduction. The formazan crystals were then dissolved in 10% sodium dodecyl sulfate (SDS) containing 0.01 N HCl and absorbance was measured at the dual wavelengths of 570 and 630 nm with a spectrophotometer (VersaMax; Molecular Devices, Silicon Valley, Calif., USA).
Cells were treated with 50 μg/ml peptide of SEQ ID NO: 1 for 24 h and then exposed to 0.5 mM hydrogen peroxide for 2 h.
For orientation: Tetrazolium dyes change colour on reduction, which living cells bring about.

The subject of assay [3] is B16F10 murine melanoma cells. The assay is described as follows: Protection against hydrogen peroxide-induced oxidative stress injury (MTT cell viability assay). The note with it: 30 μM hydrogen peroxide for 24 h, then 50 μg/ml peptide and hydrogen peroxide for 48 h. In kind it is cell-based. As for the experimental part: as §1, §2
Cells were exposed to 30 μM hydrogen peroxide for 24 h and then treated with 50 μg/ml peptide of SEQ ID NO: 1 and hydrogen peroxide for 48 h.

Assay [4] can be described thus: Bleaching of hair. The settings on record: 7.5% hydrogen peroxide, 400 μg/ml peptide, 14 days. As for the experimental part: FIG. 4 provides photographs of the hairs decolored with 7.5% hydrogen peroxide. Top panel, 7.5% hydrogen peroxide only; bottom panel, 7.5% hydrogen peroxide and incubated with 400 μg/ml peptide of the invention.
Hairs were treated with 7.5% hydrogen peroxide with or without peptide of SEQ ID NO: 1 for 14 days.

With FKCRRWQWRMKKL [Peptide of SEQ ID NO: 1], the “DPPH radical scavenging capacity” value in assay [1] is recorded as “significantly decreased DPPH radical scavenging capacity”. Moreover, the “hydrogen peroxide-induced stress injury (MTT assay), prevention” value in assay [2] is reported as “attenuates hydrogen peroxide-induced stress injury”. Moreover, the “hydrogen peroxide-induced stress injury (MTT assay), protection” value in assay [3] is on record as “attenuates hydrogen peroxide-induced stress injury”. Further, the “hair color after hydrogen peroxide immersion” value in assay [4] is “hair still had bright yellow”.
